Tested on: HIV-1 (strain IIIB)
Assay: MT4 Cell Antiviral Assay
Assay type: cell-based
Conditions: Human immunodeficiency virus 1, 120 h; HIV-1 strain IIIB in MT4 cells, 5 days, Cell Titer-Glo; 50% decrease in HIV-induced cytopathic effect
Description: Antiviral HIV activity and compound-induced cytotoxicity were measured in parallel based on a modified protocol of the propidium iodide based procedure in the human T-cell lymphotropic virus transformed cell line MT4. Aliquots of the test compounds were serially diluted in DMSO plated in 96-well plates. Exponentially growing MT4 cells were harvested and pelleted. Cell pellets were resuspended in fresh medium (RPMI 1640, 10% FCS, and gentamycin. Cell aliquots were infected by the addition of HIV-1 (strain IIIB) diluted to give a viral multiplicity of infection of 300×TCID50/million cells. A similar cell aliquot was diluted with medium to provide a mock-infected control. Cell infection was allowed to proceed for 1 hr at 37° C. in a tissue culture incubator with humidified 5% CO2 atmosphere. After the 1 hr incubation the virus/cell suspensions were diluted with fresh medium, and added to each well of the plate containing pre-diluted compound. Plates were then placed in a tissue culture incubator with humidified 5% CO2 for 5 days. […] The plates were analyzed in an automated plate reader for luminescence.assay. The control and standard used was efavirinz tested over a concentration range of 0.001 to 1 μM in every assay. The expected range of IC50 values for efavirinz is 0.1 to 1 nM.
The antiviral effect of a test compound is reported as an IC50, i.e. the inhibitory concentration that would produce a 50% decrease in the HIV-induced cytopathic effect. This effect is measured by the amount of test compound required to restore 50% of the cell growth of HIV-infected MT4 cells, compared to uninfected MT4 cell controls. IC50 was calculated by RoboSage, Automated Curve Fitting Program.
For each assay plate, the results (of wells containing uninfected cells or infected cells with no compound were averaged, respectively. For measurements of compound-induced cytotoxicty, results from wells containing various compound concentrations and uninfected cells were compared to the average of uninfected cells without compound treatment. Percent of cells remaining is determined by the following formula: Percent of cells remaining=(compound-treated uninfected cells/untreated uninfected cells)×100.
A level of percent of cells remaining of 79% or less indicates a significant level of direct compound-induced cytotoxicity for the compound at that concentration. When this condition occurs the results from the compound-treated infected wells at this concentration are not included in the calculation of IC50.
For measurements of compound antiviral activity, results from wells containing various compound concentrations and infected cells are compared to the average of uninfected and infected cells without compound treatment. Percent inhibition of virus is determined by the following formula: Percent inhibition of virus=(1−((ave. untreated uninfected cells−treated infected cells)/(ave. untreated uninfected cells−ave. untreated infected cells)))×100

Row | SMILES | IC50 [nM]
1 | CC(C)C1=C2[C@H]3CC[C@@H]4[C@@]5(C)CC[C@H](OC(=O)CC(C)(C)C(=O)O)C(C)(C)[C@@H]5CC[C@@]4(C)[C@]3(C)CC[C@@]2(/C=C/C(=O)NC2(c3ncccn3)CC2)CC1=O [Example 13, 4-(((3aS,5aR,5bR,7aR,9S,11aR,11bR,13aS)-1-isopropyl-5a,5b,8,8,11a-pentamethyl-2-oxo-3a-((E)-3-oxo-3-((1-(pyrimidin-2-yl)cyclopropyl)amino)prop-1-en-1-yl)-3,3a,4,5,5a,5b,6,7,7a,8,9,10,11,11a,11b,12,13,13a-octadecahydro-2H-cyclopenta[a]chrysen-9-yl)oxy)-2,2-dimethyl-4-oxobutanoic acid] | 10 to 250
2 | CC(C)C1=C2[C@H]3CC[C@@H]4[C@@]5(C)CC[C@H](OC(=O)CC(C)(C)C(=O)O)C(C)(C)[C@@H]5CC[C@@]4(C)[C@]3(C)CC[C@@]2(/C=C/C(=O)N[C@H](C)c2ccccn2)CC1=O [Example 14, 4-(((3aS,5aR,5bR,7aR,9S,11aR,11bR,13aS)-1-Isopropyl-5a,5b,8,8,11a-pentamethyl-2-oxo-3a-((E)-3-oxo-3-(((R)-1-(pyridin-2-yl)ethyl)amino)prop-1-en-1-yl)-3,3a,4,5,5a,5b,6,7,7a,8,9,10,11,11a,11b,12,13,13a-octadecahydro-2H-cyclopenta[a]chrysen-9-yl)oxy)-2,2-dimethyl-4-oxobutanoic acid] | 10 to 250
3 | CC(C)C1=C2[C@H]3CC[C@@H]4[C@@]5(C)CC[C@H](OC(=O)CC(C)(C)C(=O)O)C(C)(C)[C@@H]5CC[C@@]4(C)[C@]3(C)CC[C@@]2(/C=C/C(=O)N[C@@H](C)c2ccccn2)CC1=O [Example 15, 4-(((3aS,5aR,5bR,7aR,9S,11aR,11bR,13aS)-1-Isopropyl-5a,5b,8,8,11a-pentamethyl-2-oxo-3a-((E)-3-oxo-3-(((S)-1-(pyridin-2-yl)ethyl)amino)prop-1-en-1-yl)-3,3a,4,5,5a,5b,6,7,7a,8,9,10,11,11a,11b,12,13,13a-octadecahydro-2H-cyclopenta[a]chrysen-9-yl)oxy)-2,2-dimethyl-4-oxobutanoic acid] | 10 to 250
4 | CC(C)C1=C2[C@H]3CC[C@@H]4[C@@]5(C)CC[C@H](OC(=O)CC(C)(C)C(=O)O)C(C)(C)[C@@H]5CC[C@@]4(C)[C@]3(C)CC[C@@]2(/C=C/C(=O)O)CC1=O [Example 16, 4-(((3aS,5aR,5bR,7aR,9S,11aR,11bR,13aS)-3a-((E)-2-Carboxyvinyl)-1-isopropyl-5a,5b,8,8,11a-pentamethyl-2-oxo-3,3a,4,5,5a,5b,6,7,7a,8,9,10,11,11a,11b,12,13,13a-octadecahydro-2H-cyclopenta[a]chrysen-9-yl)oxy)-2,2-dimethyl-4-oxobutanoic acid] | 250 to 10000
5 | CC(C)C1=C2[C@H]3CC[C@@H]4[C@@]5(C)CC[C@H](OC(=O)CC(C)(C)C(=O)O)C(C)(C)[C@@H]5CC[C@@]4(C)[C@]3(C)CC[C@@]2(/C=C/C(=O)Nc2ccc(F)cc2)CC1=O [Example 17, 4-(((3aS,5aR,5bR,7aR,9S,11aR,11bR,13aS)-3a-((E)-3-((4-Fluorophenyl)amino)-3-oxoprop-1-en-1-yl)-1-isopropyl-5a,5b,8,8,11a-pentamethyl-2-oxo-3,3a,4,5,5a,5b,6,7,7a,8,9,10,11,11a,11b,12,13,13a-octadecahydro-2H-cyclopenta[a]chrysen-9-yl)oxy)-2,2-dimethyl-4-oxobutanoic acid] | 10 to 250
6 | CC(C)C1=C2[C@H]3CC[C@@H]4[C@@]5(C)CC[C@H](OC(=O)CC(C)(C)C(=O)O)C(C)(C)[C@@H]5CC[C@@]4(C)[C@]3(C)CC[C@@]2(/C=C/C(=O)Nc2ccc(Cl)cn2)CC1=O [Example 18, 4-(((3aS,5aR,5bR,7aR,9S,11aR,11bR,13aS)-3a-((E)-3-((5-Chloropyridin-2-yl)amino)-3-oxoprop-1-en-1-yl)-1-isopropyl-5a,5b,8,8,11a-pentamethyl-2-oxo-3,3a,4,5,5a,5b,6,7,7a,8,9,10,11,11a,11b,12,13,13a-octadecahydro-2H-cyclopenta[a]chrysen-9-yl)oxy)-2,2-dimethyl-4-oxobutanoic acid] | 10 to 250
7 | CC(C)C1=C2[C@H]3CC[C@@H]4[C@@]5(C)CC[C@H](OC(=O)CC(C)(C)C(=O)O)C(C)(C)[C@@H]5CC[C@@]4(C)[C@]3(C)CC[C@@]2(/C=C/C(=O)Nc2ccccn2)CC1=O [Example 19] | 10 to 250
8 | CC(C)C1=C2[C@H]3CC[C@@H]4[C@@]5(C)CC[C@H](OC(=O)CC(C)(C)C(=O)O)C(C)(C)[C@@H]5CC[C@@]4(C)[C@]3(C)CC[C@@]2(/C=C/C(=O)NC2(c3ccccc3Cl)CC2)CC1=O [Example 20, 4-(((3aS,5aR,5bR,7aR,9S,11aR,11bR,13aS)-3a-((E)-3-((1-(2-Chlorophenyl)cyclopropyl)amino)-3-oxoprop-1-en-1-yl)-1-isopropyl-5a,5b,8,8,11a-pentamethyl-2-oxo-3,3a,4,5,5a,5b,6,7,7a,8,9,10,11,11a,11b,12,13,13a-octadecahydro-2H-cyclopenta[a]chrysen-9-yl)oxy)-2,2-dimethyl-4-oxobutanoic acid] | 10 to 250
9 | Cc1ccc(NC(=O)/C=C/[C@@]23CC[C@]4(C)[C@H](CC[C@@H]5[C@@]6(C)CC[C@H](OC(=O)CC(C)(C)C(=O)O)C(C)(C)[C@@H]6CC[C@]54C)C2=C(C(C)C)C(=O)C3)cc1 [Example 21, 4-(((3aS,5aR,5bR,7aR,9S,11aR,11bR,13aS)-1-Isopropyl-5a,5b,8,8,11a-pentamethyl-2-oxo-3a-((E)-3-oxo-3-(p-tolylamino)prop-1-en-1-yl)-3,3a,4,5,5a,5b,6,7,7a,8,9,10,11,11a,11b,12,13,13a-octadecahydro-2H-cyclopenta[a]chrysen-9-yl)oxy)-2,2-dimethyl-4-oxobutanoic acid] | 10 to 250
10 | CC(C)C1=C2[C@H]3CC[C@@H]4[C@@]5(C)CC[C@H](OC(=O)CC(C)(C)C(=O)O)C(C)(C)[C@@H]5CC[C@@]4(C)[C@]3(C)CC[C@@]2(/C=C/C(=O)N[C@H](C)c2ccccc2Cl)CC1=O [Example 22, 4-(((3aS,5aR,5bR,7aR,9S,11aR,11bR,13aS)-3a-((E)-3-(((R)-1-(2-Chlorophenyl)ethyl)amino)-3-oxoprop-1-en-1-yl)-1-isopropyl-5a,5b,8,8,11a-pentamethyl-2-oxo-3,3a,4,5,5a,5b,6,7,7a,8,9,10,11,11a,11b,12,13,13a-octadecahydro-2H-cyclopenta[a]chrysen-9-yl)oxy)-2,2-dimethyl-4-oxobutanoic acid] | 10 to 250
11 | CC(C)C1=C2[C@H]3CC[C@@H]4[C@@]5(C)CC[C@H](OC(=O)CC(C)(C)C(=O)O)C(C)(C)[C@@H]5CC[C@@]4(C)[C@]3(C)CC[C@@]2(/C=C/C(=O)N[C@@H](C)c2cccc(Cl)c2)CC1=O [Example 23, 4-(((3aS,5aR,5bR,7aR,9S,11aR,11bR,13aS)-3a-((E)-3-(((S)-1-(3-Chlorophenyl)ethyl)amino)-3-oxoprop-1-en-1-yl)-1-isopropyl-5a,5b,8,8,11a-pentamethyl-2-oxo-3,3a,4,5,5a,5b,6,7,7a,8,9,10,11,11a,11b,12,13,13a-octadecahydro-2H-cyclopenta[a]chrysen-9-yl)oxy)-2,2-dimethyl-4-oxobutanoic acid] | 10 to 250
12 | CC(C)C1=C2[C@H]3CC[C@@H]4[C@@]5(C)CC[C@H](OC(=O)CC(C)(C)C(=O)O)C(C)(C)[C@@H]5CC[C@@]4(C)[C@]3(C)CC[C@@]2(/C=C/C(=O)NC2(c3cccc(Cl)c3)CC2)CC1=O [Example 24, 4-(((3aS,5aR,5bR,7aR,9S,11aR,11bR,13aS)-3a-((E)-3-((1-(3-Chlorophenyl)cyclopropyl)amino)-3-oxoprop-1-en-1-yl)-1-isopropyl-5a,5b,8,8,11a-pentamethyl-2-oxo-3,3a,4,5,5a,5b,6,7,7a,8,9,10,11,11a,11b,12,13,13a-octadecahydro-2H-cyclopenta[a]chrysen-9-yl)oxy)-2,2-dimethyl-4-oxobutanoic acid] | < 10
13 | CC(C)C1=C2[C@H]3CC[C@@H]4[C@@]5(C)CC[C@H](OC(=O)CC(C)(C)C(=O)O)C(C)(C)[C@@H]5CC[C@@]4(C)[C@]3(C)CC[C@@]2(/C=C/C(=O)N[C@@H](C)c2ccccc2Cl)CC1=O [Example 25, 4-(((3aS,5aR,5bR,7aR,9S,11aR,11bR,13aS)-3a-((E)-3-(((S)-1-(2-Chlorophenyl)ethyl)amino)-3-oxoprop-1-en-1-yl)-1-isopropyl-5a,5b,8,8,11a-pentamethyl-2-oxo-3,3a,4,5,5a,5b,6,7,7a,8,9,10,11,11a,11b,12,13,13a-octadecahydro-2H-cyclopenta[a]chrysen-9-yl)oxy)-2,2-dimethyl-4-oxobutanoic acid] | 10 to 250

Reference: patent publication US9340513B2, “Propenoate derivatives of betulin” (GlaxoSmithKline LLC, priority 2011, dated 2016)
